Measured values published in BigSolDB 2.1.

Cc1cc(=O)c(C(=O)N[C@@H](C(=O)N[C@@H]2C(=O)N3C(C(=O)O)=C(CSc4nnnn4C)CS[C@H]23)c2ccc(O)cc2)c[nH]1
solubility (mole fraction)
Details	278.2 K	283.2 K	288.2 K	293.2 K	298.2 K	303.2 K
in ethanol	0.000445	0.000508	0.000592	0.00069	0.000834	0.00101
in isopropanol	0.000118	0.00015	0.000187	0.000236	0.000297	0.000376
in n-butanol	9.53e-05	0.000115	0.000139	0.000166	0.0002	0.000245
in n-propanol	0.000242	0.00027	0.000305	0.000348	0.000407	0.000479
in water	4.04e-07	4.82e-07	5.8e-07	6.99e-07	8.5e-07	1.04e-06
